From the RepoRT retention time repository (doi:10.1016/j.foodchem.2021.129757)

Assays:
Conditions in all cases: stereoisomer not certain
[1] = RP, 150 × 2.1 mm, 2.6 µm, 40 °C, 0.35 mL/min, estimated dead time 0.94 min; A: water + 0.1% formic acid, pH 3; B: acetonitrile + 0.1% formic acid, pH 3; gradient (min/%B) 0/0 1/0 12.5/100 14/100 14.2/0 15/0
[2] = RP, 150 × 2.1 mm, 2.6 µm, 40 °C, 0.35 mL/min, estimated dead time 0.94 min; A: water + 0.1% formic acid, pH 3; B: acetonitrile + 0.1% formic acid, pH 3; gradient (min/%B) 0/0 1/5 7/45 8.5/80 10.5/80 11/5 12/5
[3] = RP, Waters ACQUITY UPLC BEH C18, 100 × 2.1 mm, 1.7 µm, 65 °C, 0.4 mL/min, estimated dead time 0.55 min; A: water + 0.1% formic acid, pH 3; B: 80% acetonitrile + 20% acetone + 0.1% formic acid, pH 3; gradient (min/%B) 0/0 5/100 5.5/0 6/0
[4] = RP, Agilent ZORBAX RRHD Eclipse Plus C18, 50 × 2.1 mm, 1.8 µm, 30 °C, 0.4 mL/min, estimated dead time 0.28 min; A: water + 0.1% formic acid, pH 3; B: acetonitrile + 0.1% formic acid, pH 3; gradient (min/%B) 0/1 5/10 8/25 9.1/99 10/99 12/1
[5] = RP, Agilent ZORBAX RRHD Eclipse Plus C18, 50 × 2.1 mm, 1.8 µm, 30 °C, 0.4 mL/min, estimated dead time 0.28 min; A: water + 0.1% formic acid, pH 3; B: acetonitrile + 0.1% formic acid, pH 3; gradient (min/%B) 0/1 5/10 8/25 9.1/99 10/99 12/99
[6] = RP, Waters ACQUITY UPLC HSS T3, 100 × 2.1 mm, 50 °C; A: water + 0.1% formic acid, pH 3; B: 30% methanol + 70% acetonitrile + 0.1% formic acid, pH 3; gradient (min/%B) 0/5 1/8 2/15 3/40 4/70 4.5/100 5/100 6.4/100 6.6/5 6.8/5 7/5
[7] = RP, Agilent ZORBAX Eclipse XDB-C18, 100 × 2.1 mm, 1.8 µm, 50 °C, 0.4 mL/min, estimated dead time 0.55 min; A: water + 0.1% formic acid, pH 3; B: methanol + 0.1% formic acid, pH 3; gradient (min/%B) 0/2 10/100 14.5/100 14.51/2 16.5/2
[8] = RP, Phenomenex Synergi Hydro-RP, 250 × 2 mm, 4 µm, 25 °C, 0.2 mL/min, estimated dead time 2.5 min; A: water + 0.1% formic acid, pH 3; B: acetonitrile + 0.1% formic acid, pH 3; gradient (min/%B) 0/0.5 7/0.5 12/12.5 25/16.3 47/35 48/65 50/65 50.1/0.5
[9] = RP, Phenomenex Kinetex EVO C18, 100 × 2.1 mm, 2.6 µm, 40 °C, 0.4 mL/min, estimated dead time 0.55 min; A: water + 0.2% formic acid; B: acetonitrile + 0.2% formic acid; gradient (min/%B) 0/5 0.5/5 7/95 8/95 8.5/5 12/5
[10] = RP, Waters ACQUITY UPLC HSS T3, 100 × 2.1 mm, 1.8 µm, 30 °C, 0.4 mL/min, estimated dead time 0.55 min; A: water + 0.1% formic acid, pH 3; B: acetonitrile + 0.1% formic acid, pH 3; gradient (min/%B) 0/0 2/0 15/100 22/100 22.1/0 26/0
[11] = RP, Waters ACQUITY UPLC BEH Shield RP18, 150 × 2.1 mm, 1.7 µm, 40 °C, 0.4 mL/min, estimated dead time 0.83 min; A: water + 0.1% formic acid, pH 3; B: acetonitrile + 0.1% formic acid, pH 3; gradient (min/%B) 0/0 30/50 31/100 37/100 37.1/0

SMILES | LC retention time [1] [min] | LC retention time [2] [min] | other results
NCC(=O)c1ccccc1 [2 aminoacetophenone] | 6.84 | 6.86 | 
O=C(O)CNC(=O)c1ccco1 [2-Furoylglycine] | 2.51 | 2.35 | LC retention time [3]: 1.51 min
O=C(O)CNC(=O)c1ccccc1O [2-Hydroxyhippuric acid] | 5.5 | 5.38 | LC retention time [4]: 6.83 min; LC retention time [5]: 6.69 min
O=C(O)c1cc2ccccc2[nH]1 [2-Indolecarboxylic acid] | 6.06 | 6.07 | 
O=C(O)C(O)CCc1ccccc1 (stereo unspecified) [2-hydroxy-4-phenylbutyric acid] | 6.54 | 6.6 | 
COc1cc(CCC(=O)O)cc(OC)c1OC [3-(3,4,5-Trimethoxyphenyl)propionic acid] | 6.58 | 6.73 | 
Nc1c(O)cccc1C(=O)O [3-Hydroxyanthranilic acid] | 3.21 | 2.89 | 
NC(=O)Cc1c[nH]c2ccccc12 [3-Indoleacetamide] | 5.28 | 5.15 | 
O=C(O)CCCc1c[nH]c2ccccc12 [3-Indolebutyric acid] | 7.63 | 7.97 | 
O=C(O)CCc1c[nH]c2ccccc12 [3-Indolepropionic acid] | 7.09 | 7.34 | LC retention time [6]: 3.76 min; LC retention time [7]: 5.54 min; LC retention time [3]: 2.64 min
COc1cccc(O)c1O [3-Methoxycatechol] | 4.79 | 4.56 | LC retention time [7]: 3.2 min
O=C(O)CCc1ccccc1 [3-phenylpropionic acid] |  |  | LC retention time [3]: 2.78 min; LC retention time [8]: 44.5 min
O=c1cc(O)c2ccccc2o1 [4-hydroxycoumarin] | 6.51 | 6.59 | 
Cc1cc(=O)oc2cc(O)ccc12 [4-methylumbelliferone] | 6.41 | 6.46 | 
O=C1CCC(Cc2ccc(O)c(O)c2)O1 (stereo unspecified) [5-(3',4'-Dihydroxyphenyl)-gamma-valerolactone] |  |  | LC retention time [9]: 4.13 min
O=C1CCC(Cc2cc(O)cc(O)c2)O1 (stereo unspecified) [5-(3',5'-Dihydroxyphenyl)-gamma-valerolactone] |  |  | LC retention time [9]: 3.72 min

SMILES | LC retention time [1] [min] | LC retention time [2] [min] | other results
O=C1CCC(Cc2ccc(O)c(OS(=O)(=O)O)c2)O1 (stereo unspecified) [5-(4'-Hydroxyphenyl)-gamma-valerolactone-3'-sulfate] |  |  | LC retention time [9]: 4.64 min
COc1ccc2[nH]cc(CC(=O)O)c2c1 [5-Methoxyindoleacetic acid] | 6.26 | 6.29 | 
COc1cc2c(CCNC(C)=O)c[nH]c2cc1O [6-Hydroxymelatonin] | 5.14 | 5.05 | 
CC(C=CC1(O)C(C)=CC(=O)CC1(C)C)=CC(=O)O (stereo unspecified) [Abscisic acid] | 6.9 | 7.12 | 
O=C(NC(O)C(=O)O)c1ccccc1 (stereo not drawn) [Alpha-hydroxyhippuric acid] | 3.62 | 3.34 | LC retention time [4]: 2.97 min; LC retention time [5]: 1.37 min
Cn1c(=O)c2c(ncn2C)n(C)c1=O [Caffeine] |  |  | LC retention time [6]: 3.1 min; LC retention time [10]: 8.11 min; LC retention time [7]: 3.67 min; LC retention time [3]: 1.67 min; LC retention time [8]: 21.3 min
O=C(O)CC(O)(CC(=O)O)C(=O)O [Citric acid] |  |  | LC retention time [6]: 0.67 min; LC retention time [7]: 1.09 min; LC retention time [8]: 6.32 min
O=c1ccc2cc(OC3OC(CO)C(O)C(O)C3O)c(O)cc2o1 (stereo unspecified) [Esculin] | 4.11 | 3.94 | 
Nc1nc2ncc(CNc3ccc(C(=O)NC(CCC(=O)O)C(=O)O)cc3)nc2c(=O)[nH]1 (stereo unspecified) [Folic acid] |  |  | LC retention time [7]: 3.46 min; LC retention time [8]: 19 min
COc1cc(CCC(=O)O)ccc1O [Hydroferulic acid] |  |  | LC retention time [10]: 9.38 min; LC retention time [8]: 28.5 min
O=C(O)C1(O)CC(O)C(O)C(O)C1 (stereo unspecified) [Quinic acid] |  |  | LC retention time [6]: 0.58 min; LC retention time [10]: 1.05 min; LC retention time [8]: 3.21 min
NCCc1c[nH]c2ccc(O)cc12 [Serotonin] | 1.54 | 1.45 | 
COc1cccc(C(=O)O)c1 [m-Anisic acid] |  |  | LC retention time [8]: 40.2 min
COc1ccccc1C(=O)O [o-Anisic acid] |  |  | LC retention time [8]: 31.4 min
O=C(O)CNCc1ccccc1O [salicylglycine] |  |  | LC retention time [8]: 27.4 min

Second part, led by results:

LC retention time [1] [min] | LC retention time [2] [min] | SMILES | other results
6.03 | 6.21 | COc1cc(-c2oc3cc(O)cc(O)c3c(=O)c2O)ccc1OC1OC(C(=O)O)C(O)C(O)C1O (stereo unspecified) [Isorhamnetin 4'-O-glucuronide] | LC retention time [6]: 3.58 min
5.78 | 5.92 | CC1OC(OCC2OC(Oc3c(-c4ccc(O)cc4)oc4cc(O)cc(O)c4c3=O)C(O)C(O)C2O)C(O)C(O)C1O (stereo unspecified) [Kaempferol 3-O-rutinoside] | LC retention time [8]: 37 min
5.95 | 6.11 | O=c1c(OC2OC(CO)C(O)C(O)C2O)c(-c2ccc(O)cc2)oc2cc(O)cc(O)c12 (stereo unspecified) [Kaempferol-3-O-glucoside] | LC retention time [11]: 14.7 min
6.29 | 6.35 | COc1ccc2[nH]cc(CCNC(C)=O)c2c1 [Melatonin] | 
8.01 | 8.34 | COC(=O)Cc1c[nH]c2ccccc12 [Methyl indole acetate] | 
7.64 | 7.97 | CCC=CCC1C(=O)CCC1CC(=O)OC (stereo unspecified) [Methyl jasmonate] | LC retention time [7]: 7.77 min
4.69 | 4.5 | CC(=O)NCCc1c[nH]c2ccc(O)cc12 [N-acetylserotonin] | 
6.02 | 6.17 | O=C1CC(c2ccc(O)cc2)Oc2cc(OC3OC(CO)C(O)C(O)C3O)cc(O)c21 (stereo unspecified) [Naringenin 7-O-glucoside] | 
5.3 | 5.29 | O=c1cc(-c2ccc(O)c(O)c2)oc2c(C3OC(CO)C(O)C(O)C3O)c(O)cc(O)c12 (stereo unspecified) [Orientin] | 
 | 6.25 | O=c1c(O)c(-c2ccc(OC3OC(CO)C(O)C(O)C3O)c(O)c2)oc2cc(O)cc(O)c12 (stereo unspecified) [Quercetin 4-glucoside] | 
5.66 | 5.74 | O=c1c(OC2OC(CO)C(O)C(O)C2O)c(-c2ccc(O)c(O)c2)oc2cc(O)cc(O)c12 (stereo unspecified) [Quercetin-3-O-galactoside] | 
6 | 6.17 | COc1cc(-c2oc3cc(O)cc(O)c3c(=O)c2OC2OC(CO)C(O)C(O)C2O)cc(OC)c1O (stereo unspecified) [Syringetin-3-glucoside] | 
4.73 | 4.57 | O=S(=O)(O)c1[nH]c2ccccc2c1CCO [Tryptophol-2-sulfonate] | 
6.45 | 6.48 | OCCc1c[nH]c2ccccc12 [Tryptophol] | 
5.77 | 7.69 | O=c1ccc2ccc(O)cc2o1 [Umbelliferone] | LC retention time [10]: 9.65 min
4.3 | 4.06 | O=C(O)c1cc(=O)c2ccccc2[nH]1 [kynurenic acid] | 
